Patent US8912121B2, “Herbicidal compositions comprising 4-amino-3-chloro-5-fluoro-6-(4-chloro-2-fluoro-3-methoxyphenyl)pyridine-2-carboxylic acid or a derivative thereof and certain PS II inhibitors” (Dow Agrosciences LLC, priority 2012, dated 2014)

Tests used:
[1] = system: SINAR (Sinapis arvensis, wild mustard); assay: Postemergence herbicidal activity of mixtures in cereal crops, greenhouse; assay type: in vivo, Sinapis arvensis L.
Procedure: Seeds of the desired test plant species were planted in Sun Gro MetroMix® 306 planting mixture, which typically has a pH of 6.0 to 6.8 and an organic matter content of about 30 percent, in plastic pots with a surface area of 103.2 square centimeters (cm^2). When required to ensure good germination and healthy plants, a fungicide treatment and/or other chemical or physical treatment was applied. The plants were grown for 7-36 days in a greenhouse with an approximate 14 hour photoperiod which was maintained at about 18° C. during the day and about 17° C. during the night. Nutrients and water were added on a regular basis and supplemental lighting was provided with overhead metal halide 1000-Watt lamps as necessary. The plants were employed for testing when they reached the second or third true leaf stage.
Treatments consisted of the benzyl ester of 4-amino-3-chloro-5-fluoro-6-(4-chloro-2-fluoro-3-methoxy-phenyl)pyridine-2-carboxylic acid (Compound A), formulated as an SC, a second cereal herbicide alone and then both in combination.
Other herbicidal components were applied on an active ingredient basis and included PSII-inhibiting herbicides.
Measured aliquots of benzyl ester of 4-amino-3-chloro-5-fluoro-6-(4-chloro-2-fluoro-3-methoxy-phenyl)pyridine-2-carboxylic acid (Compound A) were placed in 25 milliliter (mL) glass vials and diluted in a volume of 1.25% (v/v) Agri-Dex® crop oil concentrate to obtain stock solutions. Compound requirements are based upon a 12 mL application volume at a rate of 187 liters per hectare (L/ha). Spray solutions of the second cereal herbicide and experimental compound mixtures were prepared by adding the stock solutions to the appropriate amount of dilution solution to form 12 mL spray solution with active ingredients in two- and three-way combinations. Formulated compounds were applied to the plant material with an overhead Mandel track sprayer equipped with an 8002E nozzle calibrated to deliver 187 L/ha over an application area of 0.503 square meters (m^2) at a spray height of 18 inches (46 cm) above average plant canopy. Control plants were sprayed in the same manner with the solvent blank.
The treated plants and control plants were placed in a greenhouse as described above and watered by sub-irrigation to prevent wash-off of the test compounds. After 20-22 days, the condition of the test plants as compared with that of the control plants was determined visually and scored on a scale of 0 to 100 percent where 0 corresponds to no injury and 100 corresponds to complete kill.
Colby's equation was used to determine the herbicidal effects expected from the mixtures (Colby, S. R. 1967. Calculation of the synergistic and antagonistic response of herbicide combinations. Weeds 15:20-22).
The following equation was used to calculate the expected activity of mixtures containing two active ingredients, A and B: Expected=A+B−(A×B/100)

[2] = system: LEFCH (Leptochloa chinensis, Chinese sprangletop); assay: Postemergence foliar-applied mixtures, direct seeded rice, greenhouse; assay type: in vivo, Leptochloa chinensis (L.) Nees; conditions: 22 DAA
Excerpt: Seeds or nutlets of the desired test plant species were planted in a soil matrix prepared by mixing a loam or sandy loam soil (e.g., 28.6 percent silt, 18.8 percent clay, and 52.6 percent sand, with a pH of about 5.8 and an organic matter content of about 1.8 percent) and calcareous grit in an 80 to 20 ratio. The soil matrix was contained in plastic pots with a volume of 1 quart and a surface area of 83.6 square centimeters (cm^2). When required to ensure good germination and healthy plants, a fungicide treatment and/or other chemical or physical treatment was applied. The plants were grown for 8-22 days in a greenhouse with an approximate 14 h photoperiod which was maintained at about 29° C. during the day and 26° C. during the night. Nutrients (Peters Excel® 15-5-15 5-Ca 2-Mg and iron chelate) were applied in the irrigation solution as needed and water was added on a regular basis. Supplemental lighting was provided with overhead metal halide 1000-Watt lamps as necessary. The plants were employed for testing when they reached the first through fourth true leaf stage. […]
Treatment requirements were calculated based upon the rates being tested, the concentration of active ingredient or acid equivalent in the formulation, and a 12 mL application volume at a rate of 187 L/ha.
For treatments comprised of formulated compounds, measured amounts of compounds were placed individually in 25 mL glass vials and diluted in a volume of 1.25% (v/v) Agri-Dex® crop oil concentrated to obtain 12× stock solutions. […]
For treatments comprised of formulated and technical compounds, weighed amounts of the technical materials were placed individually in 25 mL glass vials and dissolved in a volume of 97:3 v/v acetone/DMSO to obtain 12× stock solutions, and measured amounts of the formulated compounds were placed individually in 25 mL glass vials and diluted in a volume of 1.5% (v/v) crop oil concentrate or water to obtain 12× stock solutions. […]

COc1c(Cl)ccc(-c2nc(C(=O)OCc3ccccc3)c(Cl)c(N)c2F)c1F [Compound A Benzyl Ester, benzyl ester of 4-amino-3-chloro-5-fluoro-6-(4-chloro-2-fluoro-3-methoxy-phenyl)pyridine-2-carboxylic acid]
Visual Weed Control (%)-21 DAA SINAR Obs ([1]; Compound A Benzyl Ester 2.5 g ai/ha, Table 21): 70% | Visual Weed Control (%)-21 DAA SINAR Obs ([1]; Compound A Benzyl Ester 2.5 g ai/ha, Table 22): 70% | Visual Weed Control (%)-21 DAA SINAR Obs ([1]; Compound A Benzyl Ester 5 g ai/ha, Table 21): 73% | Visual Weed Control (%)-21 DAA SINAR Obs ([1]; Compound A Benzyl Ester 5 g ai/ha, Table 22): 73% | Visual Weed Control (%) Obs ([2]; 8 g ae/ha): 35% | Visual Weed Control (%) Obs ([2]; 16 g ae/ha): 40%
